For 20 compounds, fluorescence change (kMESF span) results are on record in PubChem BioAssay AID504463 (NMMLSC, 2011).

Activity calls are given as the source filed them.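 Rule for the calls: active = fluorescence span above 25 thousand equivalent fluorochrome units, or a 33 microM versus DMSO difference score above 25; inactive = the rest.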

In this data set the test system is S. cerevisiae s288c autofluorescence, flow cytometry 520 nm, 3 h. Kind of data set: compound green fluorescence in S. cerevisiae cells – flow cytometry, strain s288c, KU SAR set 2, multiplex, artefact control for yeast TOR pathway modulator project, dose response (AID 504463). To be noted: at 33.3 µM; stronger effect = higher value. A general note: Flow cytometry measures light scatter and fluorescence of single cells or particles in a stream.
In the case of `COc1cccc(-c2cc(Nc3cc(C)[nH]n3)nc(NCc3ccccc3)n2)c1`, the fluorescence change (kMESF span) was 0.13 (inactive).

With `CCOC(=O)c1c(N)nc(NC)nc1Nc1cccc(F)c1`, the fluorescence change (kMESF span) was 0.13 (inactive).

Regarding `Cc1cc(Nc2cc(Nc3ccccc3)nc(NCc3ccccc3)n2)n[nH]1`, the fluorescence change (kMESF span) is 0.07 (inactive). For the compound `CNc1nc(N)c([N+](=O)[O-])c(Nc2cccc(Oc3ccccc3)c2)n1`, the fluorescence change (kMESF span) was 0.07 (inactive). For `COc1ccccc1-c1cc(Nc2cc(C)[nH]n2)nc(NCc2ccccc2)n1`, the fluorescence change (kMESF span) was 0.06 (inactive).

With `CCNc1nc(N)c([N+](=O)[O-])c(Nc2cccc(Cl)c2)n1`, the fluorescence change (kMESF span) was 0.49 (inactive). The value for `CCNc1nc(NC2CCCCC2)c([N+](=O)[O-])c(N2CCOCC2)n1` was 0 (inactive); that for `CNc1nc(N)c([N+](=O)[O-])c(Nc2ccccc2F)n1` was 0.07 (inactive); that for `CNc1nc(N)c([N+](=O)[O-])c(Nc2cccc(Br)c2)n1` was 0.07 (inactive). For the compound `CNc1nc(N)cc(Oc2cccc(Cl)c2)n1`, the fluorescence change (kMESF span) was 0.06 (inactive).

Turning to `CNc1nc(N)c([N+](=O)[O-])c(Nc2ccccc2Br)n1`, the fluorescence change (kMESF span) was 0.07 (inactive).

On to `CNc1nc(NC2CCCCC2)c([N+](=O)[O-])c(N2CCOCC2)n1`, for which the fluorescence change (kMESF span) was 0.14 (inactive). The figure for `CNc1nc(NC)c([N+](=O)[O-])c(Nc2cccc(Cl)c2)n1` is 0.07 (inactive); for `COC(=O)c1cccc(-c2cc(Nc3cc(C)[nH]n3)nc(NCc3ccccc3)n2)c1` it is 0.06 (inactive); for `CNc1nc(N)cc(Nc2cccc(Cl)c2)n1` it is 0.06 (inactive). For the compound `Cc1cc(Nc2cc(-c3ccccc3)nc(NCc3ccccc3)n2)n[nH]1`, the fluorescence change (kMESF span) is 0.06 (inactive). As for `O=[N+]([O-])c1c(NC2CCCCC2)nc(NCc2ccccc2)nc1N1CCOCC1`, the fluorescence change (kMESF span) was 0 (inactive). For `CNc1nc(N)cc(Nc2ccccc2F)n1`, the fluorescence change (kMESF span) was 0 (inactive). Take `CNc1nc(N)c(C(=O)c2ccc(C)c(C)c2)c(Nc2cccc(Cl)c2)n1`: the fluorescence change (kMESF span) was 0.07 (inactive). For the compound `CNc1nc(N)c([N+](=O)[O-])c(Nc2cccc(OC)c2)n1`, the fluorescence change (kMESF span) is 0.14 (inactive).
